Values quoted from earlier work in paper PMC8245892, “Pharmacokinetics of a Single Dose of Turmeric Curcuminoids Depends on Formulation: Results of a Human Crossover Study” (The Journal of Nutrition, 2021).
Counter-ions that a name gives are not always drawn.

What was measured:
[1] = system: phorbol ester–induced PGE2 production; design: method as in PMID 11221833; conditions: human cells; compared with unconjugated curcumin
[2] = system: NF-κB; design: method as in PMID 24280069
[3] = design: method as in PMID 24280069
[4] = aqueous buffer (pH 5.0)

Molecule	Reduction of phorbol ester–induced PGE2 production [1]	Effect on NF-κB [2]	Antiproliferative activity [3]	Solubility [4] [µg/mL]
COc1cc(/C=C/C(O)=C/C(=O)/C=C/c2ccc(OS(=O)(=O)O)c(OC)c2)ccc1O [curcumin sulfate]	less effective than unconjugated curcumin	–	–	–
COc1cc(C=CC(=O)CC(=O)C=Cc2ccc(OC3OC(C(=O)O)C(O)C(O)C3O)c(OC)c2)ccc1OC1OC(C(=O)O)C(O)C(O)C1O (stereo not drawn) [diglucuronide]	–	no effect	very little antiproliferative activity	–
curcumin	–	–	–	0.011
COc1cc(/C=C/C(O)=C/C(=O)/C=C/c2ccc(O[C@@H]3O[C@H](C(=O)O)[C@@H](O)[C@H](O)[C@H]3O)c(OC)c2)ccc1O [curcumin monoglucuronide]	–	no effect	very little antiproliferative activity	–
